The target of data set [1] is T1, Brd4 bromodomain 1 (BRD4(1)) (Homo sapiens, UniProt O60885).
T1 construct: made in house; host or cells: E. coli BL21(DE3)
Nature of the data set: Inhibition of tetra-acetylated histone H4 binding to BET bromodomains (TR-FRET). Also noted: key: Active: Compounds with an IC50 value less than 30 μM were deemed to be active.; Not Active: Compounds with an IC50 value less than 30 μM were deemed to be active. The settings on record: first bromodomain of Brd4, tetra-acetylated histone H4 peptide. The procedure: Proteins were cloned and overexpressed with a N-terminal 6×His tag, then purified by nickel affinity followed by size exclusion chromatography. Briefly, E. coli BL21(DE3) cells were transformed with a recombinant expression vector encoding N-terminally Nickel affinity tagged bromodomains from Brd2, Brd3, Brd4. Cell cultures were incubated at 37° C. with shaking to the appropriate density and induced overnight with IPTG. The supernatant of lysed cells was loaded onto Ni-IDA column for purification. Eluted protein is pooled, concentrated and further purified by size exclusion chromatography. Fractions representing monomeric protein were pooled, concentrated, aliquoted, and frozen at −80° C. for use in subsequent experiments.
Binding of tetra-acetylated histone H4 and BET bromodomains was confirmed by a Time Resolved Fluorescence Resonance Energy Transfer (TR-FRET) method. N-terminally His-tagged bromodomains (200 nM) and biotinylated tetra-acetylated histone H4 peptide (25-50 nM, Millipore) were incubated in the presence of Europium Cryptate-labeled streptavidin (Cisbio Cat. #610SAKLB) and XL665-labeled monoclonal anti-His antibody (Cisbio Cat. #61HISXLB) in a white 96 well microtiter plate (Greiner). For inhibition assays, serially diluted test compound was added to these reactions in a 0.2% final concentration of DMSO. Final buffer concentrations were 30 mM HEPES pH 7.4, 30 mM NaCl, 0.3 mM CHAPS, 20 mM phosphate pH 7.0, 320 mM KF, 0.08% BSA). After a 2-h incubation at room temperature, the fluorescence by FRET was measured at 665 and 620 nm by a SynergyH4 plate reader (Biotek). The binding inhibitory activity was shown by a decrease in 665 nm fluorescence relative to 620 nm. IC50 values were determined from a dose response curve.

The results in this text go back to patent US10500209B2, “Quinazolinones as bromodomain inhibitors” (Zenith Epigenetics Ltd., priority 2013, dated 2019).

Broadly, the melting point is the temperature, or range, at which the solid turns liquid.

Turning to `COc1ccc(-c2nc3cc(OC)cc(OC)c3c(=O)[nH]2)c(C(=O)N2CCN(C)CC2)c1` [Example 2, 5,7-Dimethoxy-2-(4-methoxy-2-(4-methylpiperazine-1-carbonyl)phenyl) quinazolin-4(3H)-one], in data set [1], the “FRET activity BRD4(1)” value is on record as “Active”.
Turning to `COc1ccc(-c2nc3cc(OC)cc(OC)c3c(=O)[nH]2)c(NC2CCN(C)C2)c1` (stereo not drawn) [Example 4, 5,7-Dimethoxy-2-(4-methoxy-2-((1-methylpyrrolidin-3-yl)amino)phenyl)quinazolin-4(3H)-one], the melting point is 214 to 215 °C. Besides, in data set [1], the “FRET activity BRD4(1)” value is “Active”.
`COc1ccc(-c2nc3cc(OC)cc(OC)c3c(=O)[nH]2)c(N(C)C2CCN(C)CC2)c1` [Example 5, 5,7-Dimethoxy-2-(4-methoxy-2-(methyl(1-methylpiperidin-4-yl)amino)phenyl) quinazolin-4(3H)-one] showed a melting point of 217 to 218 °C.
The molecule `COc1ccc(-c2nc3cc(OC)cc(OC)c3c(=O)[nH]2)c(NCC2CCN(C)CC2)c1` [Example 6, 5,7-Dimethoxy-2-(4-methoxy-2-(((1-methylpiperidin-4-yl)methyl)amino)phenyl) quinazolin-4(3H)-one] returned a melting point of 264 to 265 °C. Also, the “FRET activity BRD4(1)” value in data set [1] is listed as “Active”.
The corresponding values for `COc1cc(OC)c2c(=O)[nH]c(-c3ccccc3NC3CCN(C(C)C)CC3)nc2c1` [Example 10, 2-(2-((1-Isopropylpiperidin-4-yl)amino)phenyl)-5,7-dimethoxyquinazolin-4(3H)-one] are 267 to 269 °C and “Active”.
The matching figures for `COc1ccc(-c2nc3cc(OC)cc(OC)c3c(=O)[nH]2)c(NCCN2CCCC2)c1` [Example 11, 5,7-Dimethoxy-2-(4-methoxy-2-((2-(pyrrolidin-1-yl)ethyl)amino)phenyl)quinazolin-4(3H)-one]: 226 to 228 °C and “Active”.
The corresponding values for `COc1ccc(-c2nc3cc(OC)cc(OC)c3c(=O)[nH]2)c(NCCN2CCCCC2)c1` [Example 12, 5,7-Dimethoxy-2-(4-methoxy-2-((2-(piperidin-1-yl)ethyl)amino)-phenyl)quinazolin-4(3H)-one] are 231 to 232 °C and “Active”.
Turning to `COc1cc(OC)c2c(=O)[nH]c(-c3cccc(NC4CCN(C(C)C)CC4)c3)nc2c1` [Example 27, 2-(3-((1-Isopropylpiperidin-4-yl)amino)phenyl)-5,7-dimethoxyquinazolin-4(3H)-one], the “FRET activity BRD4(1)” value in data set [1] is “Active”.
Same read-out and setting: the result for `COc1ccc(-c2nc3cc(OC)cc(OC)c3c(=O)[nH]2)c(NC2CCC(C)(C)CC2)c1` [Example 29, 2-(2-((4,4-Dimethylcyclohexyl)amino)-4-methoxyphenyl)-5,7-dimethoxyquinazolin-4(3H)-one] reads “Active”.
Turning to `COc1cc(OC)c2c(=O)[nH]c(-c3ccc(Cl)cc3NC3CCN(C(C)C)CC3)nc2c1` [Example 33, 2-(4-Chloro-2-((1-isopropylpiperidin-4-yl)amino)phenyl)-5,7-dimethoxyquinazolin-4(3H)-one], the melting point is 265 °C (dec.).
For `COc1ccc(-c2nc3cc(OC)cc(OC)c3c(=O)[nH]2)c(NC2CCN(Cc3ccccc3)CC2)c1` [Example 35, 2-(2-((1-Benzylpiperidin-4-yl)amino)-4-methoxyphenyl)-5,7-dimethoxyquinazolin-4(3H)-one], the “FRET activity BRD4(1)” value in data set [1] is listed as “Active”.
Consider `COc1cnc(-c2nc3cc(OC)cc(OC)c3c(=O)[nH]2)c(N[C@H]2CC[C@@H](NC(=O)C(C)C)CC2)c1` [Example 38, N-(cis-4-((2-(5,7-Dimethoxy-4-oxo-3,4-dihydroquinazolin-2-yl)-5-methoxypyridin-3-yl)amino)cyclohexyl)isobutyramide], for which the melting point was 285 °C (dec.).
Regarding `COc1cc(N)cc2nc(-c3ncccc3NC3CCN(C(C)C)CC3)[nH]c(=O)c12` [Example 65, 7-amino-2-(3-((1-Isopropylpiperidin-4-yl)amino)pyridin-2-yl)-5-methoxyquinazolin-4(3H)-one], the “FRET activity BRD4(1)” value in data set [1] is listed as “Active”.
